This assay addresses T1, CXCR4 (Homo sapiens, UniProt P61073).
T1 construct: a human T cell strain in which CXCR4 is known to be expressed; endogenous in cells; host or cells: CEM cells (human T cell strain)
The assay can be described thus: Study for inhibition of binding human SDF-1 to CEM cells. As to conditions: human T cell strain CEM cells, 125I-SDF-1, 4° C. for 60 minutes. The source says: As mentioned above, a more direct procedure is a screening a compound that prevents for HIV from binding to CXCR4, which is a receptor on CD4+ cell, on an assay system using HIV. However, using HIV for a large-scale screening is not practical due to its difficult handling. On the other hand, both of T cell-directed (X4) HIV-1 and SDF-1 bind to CXCR4 and therefore CXCR4 binding sites at both of HIV-side and SDF-1-side as well as SDF-1- and HIV-binding sites at the CXCR4 side may presumably have any common characteristics. […]
To human T cell strain CEM cells in a binding buffer (containing HEPES and BSA), the test compound and ^125I-SDF-1 (NEN) were added and the mixture was incubated at 4° C. for 60 minutes. […] An amount of the radioactivity bound to the CEM cells was measured using Top Count (Packard) and inhibition (%) of the test compound was calculated according to the following equation: Inhibition=(Et−Ea)/(Et−Ec)×100
Et: amount of radioactivity when the test compound is not added,
Ec: amount of radioactivity when non-radioactive SDF-1 (Pepro Tech) is added in an amount of 1000 times as much as ^125I-SDF-1 as a test compound, and
Ea: amount of radioactivity when the test compound is added.

pIC50: −log10 of the molar value.

T1 sequence (P61073 whole entry): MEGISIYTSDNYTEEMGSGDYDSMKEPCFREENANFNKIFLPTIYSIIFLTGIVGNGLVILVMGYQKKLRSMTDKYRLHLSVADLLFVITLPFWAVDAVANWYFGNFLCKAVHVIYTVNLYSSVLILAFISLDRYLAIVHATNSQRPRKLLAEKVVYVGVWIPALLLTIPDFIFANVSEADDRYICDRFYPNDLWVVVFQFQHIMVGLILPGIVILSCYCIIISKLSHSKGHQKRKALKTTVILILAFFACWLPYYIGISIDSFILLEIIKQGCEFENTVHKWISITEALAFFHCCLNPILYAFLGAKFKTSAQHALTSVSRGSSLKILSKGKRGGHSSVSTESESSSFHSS

In the case of `NCCC[C@@H]1[C@@H](Nc2nccc(N3CCCCCC3)n2)CCN1C1CCCCC1` [compound 10-2, N-[(2R,3S)-2-(3-aminopropyl)-1-cyclohexyl-3-pyrrolidinyl]-4-(1-azepanyl)-2-pyrimidinamine], the pIC50 (usually the negative decadic logarithm of the IC50, by convention in mol/L) was 8.80.

Values taken from patent US8680092B2, “Nitrogenous heterocyclic compound and medicinal use thereof” (Ono Pharmaceutical Co., Ltd., priority 2005, dated 2014).
